Test results taken from US9606123B2, “Compositions and methods for diagnosing and monitoring ovarian cancer progression and treatment” (University of Virginia Patent Foundation, priority 2013, dated 2017).
Entries after “also recorded” stand apart in the source; their conditions may differ.

How the values were obtained:
A2780Cis cells = experiment: Tumor burden in A2780Cis-tumored mice treated with carboplatin; type: in vivo, Athymic nude mice; conditions: mice with platinum-resistant A2780Cis tumors, 25 mg/kg carboplatin weekly IP
Description: (§1) FIG. 3. Carboplatin indirectly regulates mesothelial VCAM-1 expression by affecting tumor burden. Athymic nude mice were given an intraperitoneal (IP) injection of A2780 (n=3 per time point) or A2780Cis (n=3 per time point) cells or saline (control, n=2). One week following tumor initiation a group of mice was imaged to obtain baseline values; the remaining mice were treated with 25 mg/kg carboplatin weekly. (A) SPECT/CT images were collected weekly starting 1 week after tumor initiation (week 0); weeks 0, 1 and 2 indicate that time after carboplatin treatment. […] Heart and omentum were removed from each cohort of mice weekly post-carboplatin treatment (x-axis, 0=1 week tumor, no treatment) and the percent injected dose of radioactivity per gram of tissue determined as described above (see FIG. 2). n=3 for each cohort, C=control animals. […]
(§2) To assess VCAM-1 as a marker of chemosensitivity, two cohorts of mice were injected with an isogenic paired cell line with one being resistant and the other sensitive to platinum: The first cohort (n=9) was injected with A2780, platinum sensitive cell line and the second (n=9) with A2780Cis platinum resistant cell line. […] After each timepoint, n=3 animals from each cohort were sacrificed and VCAM-In^111 uptake quantified via biodistribution as described above.

A2780 cells = experiment: Tumor burden in mice bearing platinum-sensitive cells treated with carboplatin; type: in vivo, Athymic nude mice; conditions: 25 mg/kg carboplatin weekly IP
Description: as §1, §2

[1] = system: VCAM-1 expression in mesothelial cells (LP9); experiment: Western analysis of VCAM-1 expression in mesothelial cells (LP9) treated with carboplatin; type: cell-based; conditions: LP9 human mesothelial cells; up to 1 μg/ml carboplatin for 24 hours
[2] = cited from earlier work

**Q.** Which results are given for `N.N.O=C([O-])C1(C(=O)[O-])CCC1.[Pt+2]` [carboplatin, cis-Diamine(1,1-cyclobutanedicarboxylato)platinum(II)]?
**A.** Tumor growth / tumor burden under carboplatin (A2780Cis cells): neither was altered; also recorded: continued to grow; Tumor burden following carboplatin treatment (A2780 cells): decreases; Change in VCAM-1 expression (Western) [1]: no change; Solubility in water [2]: 25 mM
